The values that follow come from patent US20240041765A1, “ORAL LIQUID SUSPENSION OF PAN-RAF KINASE INHIBITOR” (DAY ONE BIOPHARMACEUTICALS, INC., priority 2022, published 2024).

The series can be described thus: Single oral dose mouse PK in male CD-1 mice. The series is classed as in vivo. As to conditions: plasma, single oral dose 50 mg/kg, Mean ± SD, n = 3, vehicle: Group 1 100% PEG400, Groups 2-3 DI water, Group 4 0.5% methylcellulose in water (w/v). The method, then: Amorphous solid dispersions of Compound A in aqueous suspension formulations were administered via oral gavage in male CD-1 mice to assess Compound A plasma exposure. Pharmacokinetics (PK) of Compound A crystalline drug substance dissolved in organic solvent (PEG400) were used to generate a solution formulation—also included as the comparator group in this study. The concentrations of Compound A in mouse plasma were quantified with a qualified LC-MS/MS method.
Each oral dosing group consisted of 3 male CD-1 mice. At dosing, the animals weighted between 0.0297 to 0.0376 kg. Animals were not fasted prior to oral administration in this study. Compound A drug substances in corresponding dosing vehicles were administered by oral route using polypropylene gavage tube to CD-1 mice. Serial blood samples were collected at 0.25, 0.50, 1, 4, 8 and 24 hours post-dose. Serial blood samples were collected from a tail vein or another approved method at 0.25, 0.50, 1, 4, 8 hours post-dose. Terminal blood collection were collected via cardiac puncture at 24 hours post-dose.
Blood samples were collected into K2EDTA tubes according to in-life study protocol and immediately placed on wet ice and then centrifuged for 10 minutes at 3500 rpm for plasma preparation. All plasma samples were placed in 96-well strip-tube rack and stored in freezer until plasma analysis. Immediately following terminal blood collection, the brain tissue was collected for each animal. Each tissue was collected into pre-weighed tube and the weight of the tissue sample was determined. Samples were flash frozen and kept on dry ice until stored at −70° C. prior to sample processing and analysis. Table 27 provides the study design for the oral administration of Compound A in mice and summary of mouse PK parameters.
Non compartmental pharmacokinetic (NCA) analysis was performed on plasma concentration data using WinNonlin module in the Phoenix Platform (version 8.3.1 or above, Certara Inc., Princeton, NJ 08540). Calculations were performed using nominal sampling times in the pharmacokinetic analysis. All pharmacokinetic parameters and summary statistics are reported to 3 significant digits except for Tmax, which is reported to 2 decimal places. • Cmax: Observed peak blood/plasma concentration • Tmax: Time to reach observed peak blood/plasma concentration • kel: Elimination rate constant determined by linear regression analysis of selected time points in the apparent terminal phase of the log plasma concentration vs. time curve (not reported) • t1/2: Apparent terminal half-life calculated as ln(2)/kel • MRT: Mean time a drug molecule resides in body • AUC0-last: Area under the plasma concentration vs. time curve from 0 to the last quantifiable concentration calculated by the linear trapezoidal method • AUC0-inf: Area under the plasma concentration vs. time curve from 0 h to infinity, calculated as AUC0-last+Clast/kel

`C[C@@H](NC(=O)c1ncnc(N)c1Cl)c1ncc(C(=O)Nc2cc(C(F)(F)F)c(Cl)cn2)s1` [DAY 101 API]: the AUC0-inf was 407 ± 20.4 µg·h/mL, the AUC0-last came to 300 ± 24.7 µg·h/mL, the highest concentration (Cmax) was 18.3 ± 1.51 µg/mL and the MRTlast turned out to be 9.42 ± 0.573 h. Moreover, the Tmax was 8.00 ± 0.00 h and the t1/2 was 12.7 ± 2.30 h.
